Reference: patent US20240408100A1, “TREATMENT METHODS FOR SUBJECTS HAVING CANCER WITH A DYSREGULATED MAPK AND/OR PI3K PATHWAY” (TAIHO PHARMACEUTICAL CO., LTD., priority 2021, published 2024)
Like-named read-outs stand apart in the source and are kept apart here.

Tests used:
BT483 = assay: growth inhibition assay, NF1 mutant cell line; assay type: cell-based; conditions: Homo sapiens, BT-483; BT483, ER+ breast, NF1 p.R1204W
From the text: (§1) In order to investigate the growth inhibitory effect of Compound (1) in NF1 mutant cancer cell lines, the IC50 values of growth inhibition assay were obtained and compared then in Table 2.
(§2) In this experiment, to compare the growth inhibitory effect of Compound (1) with those of MAPK and PI3K signaling inhibitors, the IC50 values of trametinib (as a MEK inhibitor), and Alpelisib (as a PI3K inhibitor) were obtained and compared.

MeWo = assay: growth inhibition assay, NF1 mutant cell line; assay type: cell-based; conditions: Homo sapiens, melanoma, NF1 p.Q1336*
From the text: as §1, §2

MDA-MB-231 = assay: growth inhibition assay, NF1 mutant cell line; assay type: cell-based; conditions: Homo sapiens; MDA-MB-231, TN breast, NF1 p.T467Hfs*3
From the text: as §1, §2

MDA-MB-175VII = assay: growth inhibition assay, NF1 mutant cell line; assay type: cell-based; conditions: Homo sapiens, ER+ breast, NF1 p.1679Dfs*21
From the text: as §1, §2

HCC202 = assay: growth inhibition assay, NF1 mutant cell line; assay type: cell-based; conditions: HCC202, HER2+ breast, NF1 p.X465_splice
From the text: as §1, §2

HCT116 = assay: growth inhibition assay, NF1 mutant cell line; assay type: cell-based; conditions: Homo sapiens, HCT-116; HCT116, colon, NF1 p.P678Rfs*10, p.P388T
From the text: as §1, §2

H1838 = assay: growth inhibition assay, NF1 mutant cell line; assay type: cell-based; conditions: Homo sapiens, NCI-H1838; H1838, lung, NF1 p.N184Qfs*17
From the text: as §1, §2

RKO = assay: growth inhibition assay, NF1 mutant cell line; assay type: cell-based; conditions: Homo sapiens, colon
From the text: as §1, §2

[1] = system: SW1573 human lung tumor xenografts; conditions: for T/C ratio (%): Day 15; for Number of deaths / Tumor volume (mm^3) Day 15 Mean ± SE: qd Day 1-14, po
[2] = system: AsPC-1 human pancreatic tumor xenografts; conditions: for T/C ratio (%): Day 22; for Tumor volume (mm^3) Day 22 Mean ± SE: qd Day 1-21, po
Experimental: All treatments were administered every day by oral gavage. The tumor volumes and body weights of animals were recorded.

[3] = system: MCF7 cells (control and NF1 knockdown); assay: immunoblotting of target inhibition and apoptosis induction; assay type: cell-based, human
Experimental: To investigate the mechanism of action of Compound (1) in inhibiting the growth of NF1 knockdown breast cancer cells, Compound (1), trametinib, Alpelisib, and fulvestrant were exposed to NF1-knockdown MCF7 and T47D cells at indicated final concentration for 24 hours. NF1, pPRAS40 Thr246, pYB1 Ser102, pS6RP Ser235/236, ERα, and cleaved PARP were detected by immunoblotting.

[4] = system: PTEN-mutated MFE-319 cells; assay: dose-dependent apoptosis induction; assay type: cell-based, human; conditions: MFE-319, 48 hour, compared to control
[5] = system: LS180 human colorectal tumor xenografts; assay: antitumor effect in mice with LS180 xenograft tumors; assay type: in vivo; conditions: 80 mg/kg/day
Experimental: The oncogenic KRAS mutations are diverse, including not only G12C but also G12X and G13X in the mutation hotspot Glycine at […]. To determine whether Compound (1), which targets downstream of MAPK and PI3K signaling, is effective against G12D mutated cancers, an efficacy experiment of Compound (1) was conducted using subcutaneously transplanted LS180 tumor derived from colorectal cancers with KRAS G12D and PIK3CA and PTEN gene alterations.
Evaluation was conducted by comparing the efficacy of 80 mg/kg/day of Compound (1) with that of 1 mg/kg/day MEK inhibitor trametinib used as a reference group.

[6] = system: cancer cell lines derived from various human cancer origins; assay: cell growth inhibition assay, cell panel, CellTiter Glo 2.0; assay type: cell-based; conditions: 72 hour, FIG. 4A
Experimental: Cell growth inhibition assay was conducted according to 72 hour-standard protocol by CellTiter Glo 2.0 Assay.

NF1 mutant cell lines = assay: growth inhibition assay, summary over the panel; assay type: cell-based; conditions: Homo sapiens; NF1 mutant cell lines except for MDA-MB-231 cells; read-out: IC50 value
From the text: as §1, §2

[7] = system: ER+/HER2− breast cancer cell lines; assay: immunoblotting, combination with fulvestrant, presence and absence of estrogen and NF1; assay type: cell-based; conditions: single agent; presence or absence of estrogen; NF1 wildtype and NF1 knockdown cells
Experimental: The actual standard of care for ER+/HER2− breast cancer uses the adjuvant therapies such as tamoxifen, letrozole, or fulvestrant. Patients with recurrent or refractory tumors are treated with additional use of CDK4/6 inhibitors or Alpelisib for PIK3CA-mutated cancers.

PTEN-mutated HEC-6 cells = assay: dose-dependent apoptosis induction; assay type: cell-based, human; conditions: HEC-6, 48 hour, compared to control
[8] = system: LU65 human lung tumor xenografts; assay: antitumor effect in mice with LU65 xenograft tumors
Experimental: The tumor volumes and body weights of animals were recorded.

T47D = assay: growth inhibition, 3 days; assay type: cell-based; conditions: Homo sapiens, NF1 WT
Experimental: (§3) MCF7 cells cultured in phenol red-free RPMI1640 medium containing 10% charcoal stripped FBS were transfected with NF1 siRNA to a final concentration of […] using Lipofectamine RNAiMAX. The cells were then incubated for 1 day at 37° C., 5% CO2. After that, E2 (estrogen) was added to the medium at 1 nmol/L final concentration, and the cells were cultured for 3 days, after which the cells were collected and cell extracts were prepared.
(§4) To investigate the growth inhibition effect of Compound (1) on the NF1-depleted ER+/HER2− breast cancer cells, MCF7 and T47D, the serially diluted Compound (1) was exposed to the cells for 3 days as in the previous experiment.
(§5) The growth inhibition curve in MCF7 and T47D cells were obtained and the half maximal inhibitory concentration (IC50) value of growth inhibition were calculated as shown in Table 1.

MCF7 = assay: growth inhibition, 3 days; assay type: cell-based; conditions: Homo sapiens, MCF7, NF1 WT
Experimental: as §3, §4, §5

[9] = with estrogen, read-out: IC50 (nmol/L) E2 (+)
[10] = without estrogen, read-out: IC50 (nmol/L) E2 (−)

## CC(C)(C)NCCNc1ccc(-c2nnc(C(F)(F)F)o2)nc1C1CCN(c2ncnc3c2C(C)(C)C(=O)N3)CC1 [Compound (1), 4-(4-(3-((2-(tert-butylamino)ethyl)amino)-6-(5-(trifluoromethyl)-1,3,4-oxadiazol-2-yl)pyridin-2-yl)piperidin-1-yl)-5,5-dimethyl-5H-pyrolo[2,3-d]pyrimidin-6(7H)-one]
BT483
  IC50: 0.128 µM
MeWo
  IC50: 0.844 µM
MDA-MB-231
  IC50: 2.81 µM
MDA-MB-175VII
  IC50: 0.07 µM
HCC202
  IC50: 0.157 µM
HCT116
  IC50: 0.355 µM
H1838
  IC50: 0.344 µM
RKO
  IC50: 0.118 µM
[1]; 30 mg/kg/day
  T/C ratio (%): 55%
  Number of deaths: 0
  Tumor volume (mm^3) Day 15 Mean ± SE: 438.6 ± 81.1 mm^3
[1]; 60 mg/kg/day
  T/C ratio (%): 38%
  Number of deaths: 0
  Tumor volume (mm^3) Day 15 Mean ± SE: 305.6 ± 33.0 mm^3
[2]; 40 mg/kg/day
  Number of deaths: 0
  T/C ratio (%): 91%
  Tumor volume (mm^3) Day 22 Mean ± SE: 860.1 ± 112.1 mm^3
[2]; 80 mg/kg/day
  Number of deaths: 0
  T/C ratio (%): 69%
  Tumor volume (mm^3) Day 22 Mean ± SE: 648.0 ± 51.7 mm^3
[2]; mouse, in vivo
  weight reduction or tolerability: no significant changes in weight reduction or tolerability
[3]; MCF7, control and NF1 knockdown, 24 hours, immunoblot
  signals of pPRAS40, pYB1, and pS6RP (target inhibition): decreased the signals of pPRAS40, pYB1, and pS6RP in a concentration-dependent manner
[3]; MCF7 NF1 knockdown cells versus control cells
  apoptosis induction (cleaved PARP signal): did not exhibit the attenuation of apoptosis induction
[3]; MCF7 control cells (non-targeting siRNA), single agent
  apoptosis induction (cleaved PARP signal): induced apoptosis
[4]
  levels of cleaved caspase-3 and cleaved PARP: increased cleaved caspase-3 and cleaved PARP in a concentration dependent manner
[5]
  Number of deaths: 0
[5]; Day 15
  T/C ratio (%): 59%
[5]; qd Day 1-14, po
  Tumor volume (mm^3) Day 15 Mean ± SE: 867.8 ± 210.6 mm^3
[6]
  growth inhibition in cancer cell panel: potent growth inhibition
NF1 mutant cell lines
  IC50: < 1 µM
[7]
  apoptosis induction: observed
PTEN-mutated HEC-6 cells
  levels of cleaved caspase-3 and cleaved PARP: increased cleaved caspase-3 and cleaved PARP in a concentration dependent manner
[8]; 80 mg/kg/day
  Number of deaths: 0
[8]; 80 mg/kg/day, Day 13
  T/C ratio (%): 75%
[8]; 80 mg/kg/day, qd, po
  Tumor volume (mm^3) Day 13 Mean ± SE: 1724.3 ± 91.1 mm^3
[8]; throughout the study period
  tolerability (body weight changes): well tolerated
T47D; [9]
  IC50: 65 nmol/L
T47D; [10]
  IC50: 125 nmol/L
MCF7; [9]
  IC50: 108 nmol/L
MCF7; [10]
  IC50: 89 nmol/L
